Test results as given in patent publication EP3755703B1, “N-(PHENYL)-2-(PHENYL)PYRIMIDINE-4-CARBOXAMIDE DERIVATIVES AND RELATED COMPOUNDS AS HPK1 INHIBITORS FOR TREATING CANCER” (Incyte Corporation, priority 2018, dated 2019).

The molecules below were run against T1, HPK1 (Homo sapiens, UniProt Q92918) (assay: HPK1 Kinase Binding Assay). Conditions: LanthaScreen tracer 222, one hour incubation at 25 °C.
T1 construct: purchased SignalChem M23-11G
T1 sequence (Q92918 1-346 limits assumed): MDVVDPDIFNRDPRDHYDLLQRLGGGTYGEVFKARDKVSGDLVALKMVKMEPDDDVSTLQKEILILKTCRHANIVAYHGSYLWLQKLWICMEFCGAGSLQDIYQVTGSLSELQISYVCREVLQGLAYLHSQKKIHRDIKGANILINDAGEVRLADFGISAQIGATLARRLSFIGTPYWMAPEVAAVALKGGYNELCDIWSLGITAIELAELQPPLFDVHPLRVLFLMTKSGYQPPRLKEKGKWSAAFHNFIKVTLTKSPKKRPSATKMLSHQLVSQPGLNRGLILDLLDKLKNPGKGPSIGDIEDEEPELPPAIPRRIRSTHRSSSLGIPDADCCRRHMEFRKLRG

SMILES	Ki [nM]
COc1cccc(F)c1-c1nccc(C(=O)Nc2cc(F)ccc2N2CCC3CNCC32)n1 (stereo not drawn) [Example 9, N-(5-Fluoro-2-(hexahydropyrrolo[3,4-b]pyrrol-1(2H)-yl)phenyl)-2-(2-fluoro-6-methoxyphenyl)pyrimidine-4-carboxamide]	500 to 5000
COc1ccc(C(=O)Nc2ccc(-c3cnccc3C#N)cc2N2C[C@@H](N)C[C@H]2CO)nc1-c1c(F)cccc1OC [Example 61, N-(2-((2S,4S)-4-Amino-2-(hydroxymethyl)pyrrolidin-1-yl)-4-(4-cyanopyridin-3-yl)phenyl)-6-(2-fluoro-6-methoxyphenyl)-5-methoxypicolinamide]	100 to 500
COc1cccc(F)c1-c1nccc(C(=O)Nc2ccc(S(C)(=O)=O)cc2N2C[C@@H](N)C[C@H]2CO)n1 [Example 85, N-(2-((2S,4S)-4-Amino-2-(hydroxymethyl)pyrrolidin-1-yl)-4-(methylsulfonyl)phenyl)-2-(2-fluoro-6-methoxyphenyl)pyrimidine-4-carboxamide]	< 100
COc1cccc(F)c1-c1nccc(C(=O)Nc2ccc(-c3cnccc3C#N)cc2N2CCO[C@H](CC#N)C2)n1 [Example 102, (R)-N-(2-(2-(Cyanomethyl)morpholino)-4-(4-cyanopyridin-3-yl)phenyl)-2-(2-fluoro-6-methoxyphenyl)pyrimidine-4-carboxamide]	< 100
COc1cccc(F)c1-c1nccc(C(=O)Nc2ccc(-c3ccncc3C#N)c(F)c2N2C[C@@H]3C[C@H]2CN3)n1 [Example 40, N-(2-((1S,4S)-2,5-Diazabicyclo[2.2.1]heptan-2-yl)-4-(3-cyanopyridin-4-yl)-3-fluorophenyl)-2-(2-fluoro-6-methoxyphenyl)pyrimidine-4-carboxamide]	< 100
COC[C@H]1CCCN1c1ccc(F)cc1NC(=O)c1ccnc(-c2c(F)cccc2OC)n1 [Example 5, (R)-N-(5-Fluoro-2-(2-(methoxymethyl)pyrrolidin-1-yl)phenyl)-2-(2-fluoro-6-methoxyphenyl)pyrimidine-4-carboxamide]	100 to 500

Further lines, results first:

Ki [nM]	SMILES
< 100	COc1cccc(F)c1-c1nccc(C(=O)Nc2ccc(-c3c(C)nn(C)c3C)cc2[C@H]2CC[C@@H](N)CC2)n1 [Example 84, N-(2-((cis)-4-Aminocyclohexyl)-4-(1,3,5-trimethyl-1H-pyrazol-4-yl)phenyl)-2-(2-fluoro-6-methoxyphenyl)pyrimidine-4-carboxamide]
< 100	[2H]C([2H])([2H])Oc1c(F)ccc(F)c1-c1nccc(C(=O)Nc2ccc(-c3cnccc3C#N)cc2N2C[C@@H](N)C[C@H]2CO)n1 [Example 75, N-(2-((2S,4S)-4-Amino-2-(hydroxymethyl)pyrrolidin-1-yl)-4-(4-cyanopyridin-3-yl)phenyl)-2-(3,6-difluoro-2-(methoxy-d3)phenyl)pyrimidine-4-carboxamide]
< 100	COc1cccc(F)c1-c1nccc(C(=O)Nc2ccc(-c3c(F)cccc3C#N)cc2N2C[C@@H](N)C[C@H]2CO)n1 [Example 45, N-(3-((2S,4S)-4-Amino-2-(hydroxymethyl)pyrrolidin-1-yl)-2'-cyano-6'-fluorobiphenyl-4-yl)-2-(2-fluoro-6-methoxyphenyl)pyrimidine-4-carboxamide]
< 100	N#CC1(c2ccc(NC(=O)c3ccnc(-c4c(F)cccc4F)n3)c(N3C[C@@H](N)C[C@H]3CO)c2)CC1 [Example 94, N-(2-((2S,4S)-4-Amino-2-(hydroxymethyl)pyrrolidin-1-yl)-4-(1-cyanocyclopropyl)phenyl)-2-(2,6-difluorophenyl)pyrimidine-4-carboxamide]
< 100	COc1cccc(F)c1-c1nccc(C(=O)Nc2ccc(-c3cnccc3C#N)cc2N2C[C@H](C)NC[C@H]2CO)n1 [Example 51, N-(4-(4-Cyanopyridin-3-yl)-2-((2S,5S)-2-(hydroxymethyl)-5-methylpiperazin-1-yl)phenyl)-2-(2-fluoro-6-methoxyphenyl)pyrimidine-4-carboxamide]
< 100	COCC1CN(c2cc(-c3cnccc3C#N)ccc2NC(=O)c2ccnc(-c3c(F)cccc3OC)n2)C1 [Example 105, N-(4-(4-Cyanopyridin-3-yl)-2-(3-(methoxymethyl)azetidin-1-yl)phenyl)-2-(2-fluoro-6-methoxyphenyl)pyrimidine-4-carboxamide]
< 100	COc1cccc(F)c1-c1nccc(C(=O)Nc2ccc(F)cc2N2C[C@@H](N)C[C@H]2CO)n1 [Example 92, N-(2-((2S,4S)-4-Amino-2-(hydroxymethyl)pyrrolidin-1-yl)-4-fluorophenyl)-2-(2-fluoro-6-methoxyphenyl)pyrimidine-4-carboxamide]
< 100	COc1cccc(F)c1-c1nccc(C(=O)Nc2cccc(C#N)c2N2C[C@H]3C[C@@H]2CN3)n1 [Example 14, N-(2-((1R,4R)-2,5-Diazabicyclo[2.2.1]heptan-2-yl)-3-cyanophenyl)-2-(2-fluoro-6-methoxyphenyl)pyrimidine-4-carboxamide]
